# From patent publication EP1325958A1, “Genetic sequence coding for creatinine deiminase, and its use” (CampusGen GmbH, priority 2002, dated 2003)
# System: Creatinin-Deiminase (EC 3.5.4.21) aus Tissierella creatinini, heterolog in E. coli exprimiert, gereinigt, SEQ ID NO:2
# Assay: Substrate saturation of purified recombinant creatinine deiminase (coupled optical test, Lineweaver-Burk plot)
# Format: biochemical
# Conditions: purified recombinant enzyme, 0,06 µg per test, coupled optical test, 37°C, TEA-Puffer pH 8,6, read-out: Km-Wert für Creatinin
# Source text: Abb. 1: Biosynthese von Creatin und Creatinin im menschlichen Körper. Die Synthese erfolgt in mehreren Schritten in verschiedenen Körperorganen. Abb. 2: Enzymatische Bestimmung von Creatinin mit Creatininase, Creatin-Kinase, Pyruvat-Kinase und Laktatdehydrogenase. Creatinin wird katalysiert durch Creatininase und Creatin-Kinase gekoppelt mit Pyruvatbildung. Das Pyruvat wird in der Indikatorreaktion in Gegenwart von Laktatdehydrogenase zu Laktat umgesetzt und dabei eine Extinktionsabnahme bei 340 nm von NADH gemessen. Abb.3: Enzymatische Bestimmung von Creatinin mit Creatininase, Creatinase, Sarcosinoxidase und Peroxidase. Creatinin wird katalysiert durch Creatininase, Creatinase und Sarcosinoxidase zu Glycin, Formaldehyd und H2O2 abgebaut. Das H2O2 wird in der Indikatorreaktion mittels Peroxidase anhand der Extinktionszunahme bei 510 oder 546 nm bestimmt. Abb.4: Enzymatische Bestimmung von Creatinin mit Creatinin-Deiminase und Glutamatdehydrogenase. Creatinin wird katalysiert durch Creatinin-Deiminase zu N-Methylhydantoin und Ammoniak abgebaut. Der Ammoniak wird mit α-Ketoglutarat und NADH mittels Glutamat-Dehydrogenase zu Glutamat umgesetzt und photometrisch die Extinktionsabnahme durch Verbrauch an NADH bei 340 bzw. 365 nm gemessen. Abb. 5: Schematische Darstellung des pBluescriptSK^+-Vektors. Gezeigt sind einige Restriktionsschnittstellen. […]
row,SMILES,Km [µM]
1,CN1CC(=O)N=C1N [Creatinin],1100

# Same assay, conditions: substrate Creatinin, this enzyme preparation, Proteinkonzentration: 6 µg/ml --> 1467 U/mg
row,SMILES,Vmax
1,CN1CC(=O)N=C1N [Creatinin],"8,8 U/ml"

# System: Creatinin-Deiminase (EC 3.5.4.21) aus Tissierella creatinini, heterolog in E. coli exprimiert, gereinigt, SEQ ID NO:2
# Assay: Interference studies: substances added to the standard creatinine deiminase test, enzyme activity determined
# Format: biochemical
# Conditions: statement in the text referring to Tabelle 1
# Experimental: Dieses erfindungsgemäße Verfahren ermöglicht die Bestimmung von Creatinin bei Einsatz von nur zwei Enzymen, die in einer Mess- bzw. Indikatorreaktion eingesetzt werden, wobei keine komplizierten Hilfsreaktionen erforderlich sind. Wie in Tabelle 1 gezeigt ist, weist die erfindungsgemäße Creatinin-Deiminase eine außerordentlich hohe Spezifität für sein Substrat Creatinin auf. Das Enzym zeigt insbesondere mit Cytosin bis zu einer Konzentration von […] keine Interferenz in der Reaktion. Somit ermöglicht die erfindungsgemäße Creatinin-Deiminase eine Bestimmung von Creatinin auch in Gegenwart anderer Substrate, insbesondere Cytosin ohne das Auftreten einer Interferenz, die das Messergebnis verfälschen würde. Tabelle 1:
# Die Aktivität des gereinigten rekombinanten Enzyms wurde durch eine modifizierte enzymatische Methode nach Bergmeyer 1985 (BERGMEYER, H.U. (1985). Methods of enzymatic analysis 8: 488-507) bestimmt. Sie beruht auf der Messung des während der Creatinindeiminierung freigesetzten Ammoniaks in einem gekoppelten optischen Test durch Verbrauch von NADH bei 340 nm bzw. 365 nm. Der Reaktionsansatz enthielt folgende Konzentrationen in einem Endvolumen von 0,6 ml: TEA-Puffer 0,11 mol/l, pH 8,6; Creatinin 1,5 mmol/l; ADP 1,11 mmol/l; DTE 1 mmol/l; NADH 0,11 mmol/l; 2-Oxoglutarat 11 mmol/l; Glutamat-Dehydrogenase 8 U/ml. Nach Inkubation des Reaktionsansatzes (5 min bei 37°C) in einer Küvette im Photometer wurde die Reaktion mit 0,01 ml des gereinigten rekombinanten Enzyms gestartet und die Extinktionsabnahme bei 340 nm beobachtet. Eine Enzymeinheit katalysiert den Abbau von 1 µmol Creatinin/min bei 37°C.
# Es wurden Interferenzstudien mit der gereinigten heterolog exprimierten Creatinin-Deiminase mit verschiedenen in Seren relevanten Substanzen durchgeführt. Diese wurden zum Standardtestansatz gegeben und jeweils die Aktivität der Creatinin-Deiminase bestimmt. In Tabelle 1 sind die getesteten relevanten Substanzen aufgelistet, die in den angegebenen Konzentrationen keine Interferenzen mit dem Enzymtest zeigten. Die rekombinante Creatinin-Deiminase zeigte eine außerordentliche Substratspezifität bei Zusatz der in Tabelle 1 angegebenen Substanzen.
row,SMILES,keine Interferenz in der Reaktion bis zu einer Konzentration von [mg/mL]
1,Nc1cc[nH]c(=O)n1 [Cytosin],2000

# Same assay, conditions: substance added to the standard test (Creatinin 1,5 mmol/l, 37°C, pH 8,6); no interference with the enzyme test at the stated concentration
row,SMILES,Keine Interferenzen bis zu einer Konzentration von
1,Nc1nc(=O)[nH]cc1F [5-Fluorocytosin],1000 mg/L
2,CC(C)=O [Aceton],2000 mg/L
3,O=C1O[C@H]([C@@H](O)CO)C(O)=C1O [Ascorbinsäure],200 mg/L
4,C[C@H](CS)C(=O)N1CCC[C@H]1C(=O)O [Captopril],83 mg/L
5,CN(CC(=O)O)C(=N)N [Creatin],2000 mg/L
6,Nc1cc[nH]c(=O)n1 [Cytosin],2000 mg/L
7,CNC[C@H](O)c1ccc(O)c(O)c1 [Epinephrin],"0,05 mg/l"
8,NS(=O)(=O)c1cc(C(=O)O)c(NCc2ccco2)cc1Cl [Fuoresemid],4433 mg/L
9,OC[C@H]1OC(O)[C@H](O)[C@@H](O)[C@@H]1O (some centres unmarked) [Glukose],1100 mg/L
10,N[C@@H](Cc1c[nH]cn1)C(=O)O [Histidin],2250 mg/L
11,NCC(O)c1cccc(O)c1 (centres unmarked) [Norfenefrin],"1,5 mg/l"
12,O=C(O)C(=O)O [Oxalsäure],400 mg/L
13,O=C(O)c1cc(N=Nc2ccc(S(=O)(=O)Nc3ccccn3)cc2)ccc1O [Salazosulfapyridin],550 mg/L
14,Cc1cc(NS(=O)(=O)c2ccc(N)cc2)no1 [Sulfatmethoxazol],500 mg/L
15,COc1cc(Cc2cnc(N)nc2N)cc(OC)c1OC [Trimethoprim],46 mg/L
16,CN[C@H](CC(C)C)C(=O)N[C@H]1C(=O)N[C@@H](CC(N)=O)C(=O)N[C@H]2C(=O)N[C@H]3C(=O)N[C@H](C(=O)N[C@H](C(=O)O)c4cc(O)cc(O)c4-c4cc3ccc4O)[C@H](O)c3ccc(c(Cl)c3)Oc3cc2cc(c3O[C@@H]2O[C@H](CO)[C@@H](O)[C@H](O)[C@H]2O[C@H]2C[C@](C)(N)[C@H](O)[C@H](C)O2)Oc2ccc(cc2Cl)[C@H]1O [Vancomycin],288 mg/L
17,CC(N)(Cc1ccc(O)c(O)c1)C(=O)O (stereo not drawn) [α-Methyl-Dopa],107 mg/L
